Results reported in patent publication US20230293629A1, “METHODS FOR ATTENUATING RELEASE OF INFLAMMATORY MEDIATORS AND PEPTIDES USEFUL THEREIN” (BIOMARCK PHARMACEUTICALS LTD., priority 2006, published 2023).
Where a SMILES comes first, the peptide text is derived from it. Where no end group is shown, it is not given here. The star is where a group is joined. Myristoyl = CCCCCCCCCCCCCC(=O)*

Legend:
human neutrophils = experiment: PMA-stimulated MPO release from isolated human neutrophils (TMB assay); type: cell-based; conditions: for MPO activity relative to control as 100%: 30 min after 100 nM PMA, PMA control reference about 275%; for % Inhibition MPO: 100 μM test peptide, two hour incubation with 100 nM PMA, human neutrophils; for increase of human neutrophil MPO release versus control level: 100 nM PMA
Source text: Human neutrophil isolation—These studies were approved by the human studies Institutional Review Board (IRB). Human neutrophils were isolated as previously described (see Takashi S, OkuboY, Horie S. Contribution of CD54 to human eosinophil and neutrophil superoxide production. J Appl Physiol 2001; 91:613-622) with slight modifications. Briefly, heparinized venous blood was obtained from normal healthy volunteers, diluted with RPMI-1640 (Cellgro; Mediatech, Inc., Herndon, VA) at a ratio of 1:1, layered onto a Histopaque (density, 1.077 g/ml; Sigma-Aldrich Co., St. Louis, MO) and centrifuged at 400 g for 20 min at 4° C. The supernatant and mononuclear cells at the interface were carefully removed, and erythrocytes in the sediment were lysed in chilled distilled water. Isolated granulocytes were washed twice with Hanks' balanced salts solution (HBSS) and resuspended in HBSS on ice.
Measurement of released neutrophil MPO activity—For measurement of MPO release, purified human neutrophils suspended in HBSS were aliquoted at 4×10^6 cells/ml in 15 ml tubes and preincubated with either 50 or 100 μM of MANS, RNS, or one of the peptides of invention for 10 min at 37° C. The cells then were stimulated with 100 nM phorbol 12-myristate 13-acetate (PMA) for up to 3 hrs. A control reference (PMA control reference) was established using purified human neutrophils suspended in HBSS aliquoted at 4×10^6 cells/ml in 15 mL tubes and stimulated with 100 nM phorbol 12-myristate 13-acetate (PMA) in the absence of a test peptide for the same time periods. The reaction was terminated by placing the tubes on ice and centrifugation at 400 g for 5 min at 4° C.
MPO activity in the cell supernatant was assayed using tetramethylbenzidine (TMB) based on a previously established technique (Abdel-Latif D, Steward M, Macdonald D L, Francis G A., Dinauer M C, Lacy P. Rac2 is critical for neutrophil primary granule exocytosis. Blood 2004; 104:832-839). Briefly, 100 μL of TMB substrate solution was added to 50 μL of cell supernatants or standard human MPO (EMD Biosciences, Inc., San Diego, CA) in a 96-well microplate followed by incubation at room temperature for 15 min. The reaction was terminated by addition of 50 μL of 1M […] and absorbance was read at 450 nm in a spectrophotometric microplate reader (VERSA max, Molecular Devices, Sunnyvale, CA).
The data presented in the table below represents 100 μM concentration of test peptides and a two hour incubation with 100 nM PMA.

HL-60 clone 15 cells = experiment: PMA-stimulated EPO release from HL-60 clone 15 cells; type: cell-based, human; conditions: for % Inhibition EPO: 50 μM test peptide, two hour incubation with 100 nM PMA, HL-60 clone 15 cells
Description: Three types of human leukocyte cell lines, specifically the promyelocytic cell line HL-60 clone 15, the monocytic cell line U937, and the lymphocyte natural killer cell line NK-92 were purchased from American Type Culture Collection (ATCC; Rockville, MD). HL-60 clone 15 cells (ATCC CRL-1964) were maintained in medium consisting of RPMI 1640 with L-glutamine supplemented with 10% heat-inactivated fetal bovine serum (Gibco; Invitrogen Co., Carlsbad, CA), 50 IU/ml penicillin, 50 μg/mL streptomycin, and 25 mM HEPES buffer, pH 7.8, at 37° C. in an atmosphere containing 5% CO2. Final differentiation to an eosinophil-like phenotype was initiated by culturing cells at 5×10^5 cells/ml in the above medium containing 0.5 mM butyric acid (Sigma-Aldrich Co.) for 5 days as previously described (Tiffany H L, Li F, Rosenberg H F. Hyperglycosylation of eosinophil ribonucleases in a promyelocytic leukemia cell line and in differentiated peripheral blood progenitor cells. J Leukoc Biol 1995; 58:49-54; Tiffany H L, Alkhatib G, Combadiere C, Berger E A, Murphy P M. CC chemokine receptors 1 and 3 are differentially regulated by IL-5 during maturation of eosinophilic HL-60 cells. J Immunol 1998; 160:1385-1392). U937 cells (ATCC CRL-1593.2) were grown at 37° C. in an atmosphere of 5% CO2 in complete medium consisting of RPMI 1640 with L-glutamine supplemented with 10% FBS, 50 IU/ml penicillin, and 50 μg/mL streptomycin. NK-92 cells (ATCC CRL-2407) were maintained in alpha-MEM medium (Sigma-Aldrich Co.) supplemented with 20% FBS, 100 U/ml of interleukin-2 (IL-2) (Chemicon International, Inc., Temecula, CA), 5×10^−5 M of 2-mercaptoethanol, 50 IU/mL penicillin, and 50 μg/ml streptomycin at 37° C. in an atmosphere containing 5% CO2. Cell morphology was judged by assessment of Wright-Giemsa-stained cells. Viability of cells harvested for experiments was assessed by trypan blue exclusion and populations of cells with viability >95% were used.
HL-60 clone 15, U937, and NK-92 cells were washed and resuspended at 2.5×10^6 cells/ml in phenol red-free RPMI-1640 (Cellgro; Mediatech, Inc.) for all degranulation assays. Aliquots of cells in 15 ml tubes were preincubated with indicated concentrations of MANS, RNS, or a test peptide for 10 min at 37° C. The cells then were stimulated with PMA for up to 2 hr. A control reference (PMA control reference) was established for each cell type using HL-60 clone 15, U937, and NK-92 cells, respectively, which were washed and resuspended at 2.5×10^6 cells/ml in phenol red-free RPMI-1640 and stimulated with PMA but in the absence of MANS, RNS, or a test peptide for the same time periods. The reaction was terminated by placing tubes on ice and centrifuging cells at 400 g for 5 min at 4° C.
For measurements of released MPO from neutrophils and released lysozyme from U937 cells, we were able to quantify secretion by using as standards human MPO and egg white […], respectively. For released EPO from HL-60 clone 15 cells and for released granzyme from NK-92 cells, no standards were available to use for quantification. […] To measure intracellular EPO in HL-60 clone 15 cells and intracellular granzyme in NK-92 cells, appropriate aliquots of 0.1% triton X-100-lysed cells were taken for quantification of intracellular granule proteins as described below. All treatments were expressed as percentage of control to minimize variability between cultures.
EPO activity released by HL-60 clone 15 cells was assayed using TMB according to a previously established technique (Lacy P, Mahmudi-Azer S, Bablitz B, Hagen S C, Velazquez J R, Man S F, Moqbel R. Rapid mobilization of intracellularly stored RANTES in response to interferon-gamma in human eosinophils. Blood 1999; 94:23-32). Thus, 100 μL of TMB substrate solution was added to 50 μL=microliters) of sample in a 96-well microplate and incubated at room temperature for 15 min (min=minutes). […]

[1] = Qualitative solubility of peptides in 0.5 N saline, pH 6.5
[2] = any of the time points or concentrations tested

Compound: CCCCCCCCCCCCCC(=O)NCC(=O)N[C@@H](C)C(=O)N[C@@H](CCC(N)=O)C(=O)N[C@@H](Cc1ccccc1)C(=O)N[C@@H](CO)C(=O)N[C@@H](CCCCN)C(=O)N[C@H](C(=O)N[C@@H](C)C(=O)N[C@@H](C)C(=O)N[C@@H](CCCCN)C(=O)NCC(=O)N[C@@H](CCC(=O)O)C(=O)N[C@@H](C)C(=O)N[C@@H](C)C(=O)N[C@@H](C)C(=O)N[C@@H](CCC(=O)O)C(=O)N[C@@H](CCCNC(=N)N)C(=O)N1CCC[C@H]1C(=O)NCC(=O)N[C@@H](CCC(=O)O)C(=O)N[C@@H](C)C(=O)N[C@@H](C)C(=O)N[C@H](C(=O)N[C@@H](C)C(=O)O)C(C)C)[C@@H](C)O [MANS] (Myristoyl-GAQFSKTAAKGEAAAERPGEAAVA-OH; C-terminus assumed)
- MPO activity relative to control as 100% (human neutrophils; 50 μM): about 275%
- reduction in MPO release versus the PMA control reference (human neutrophils; 50 μM, 1 hr): about 15%
- MPO activity % of control (human neutrophils; 50 μM, 1 hr, PMA control reference about 340%): about 290%
- reduction of MPO release versus the PMA control reference (human neutrophils; 50 μM, 2 hours): approximately 30%
- MPO activity % of control (human neutrophils; 50 μM, 2 hours, PMA control reference about 540%): about 375%
- reduction of MPO release versus the PMA control reference (human neutrophils; 50 μM, 3 hours): approximately 33%
- MPO activity % of control (human neutrophils; 50 μM, 3 hours, PMA control reference about 560%): about 375%
- % Inhibition MPO (human neutrophils): 31.2%
- MPO activity relative to control as 100% (human neutrophils; 100 μM): about 305%
- reduction in MPO release versus the PMA control reference (human neutrophils; 100 μM, 1 hr): about 25%
- MPO activity % of control (human neutrophils; 100 μM, 1 hr, PMA control reference about 340%): about 260%
- reduction of MPO release versus the PMA control reference (human neutrophils; 100 μM, 2 hours): approximately 45%
- MPO activity % of control (human neutrophils; 100 μM, 2 hours, PMA control reference about 540%): about 295%
- reduction of MPO release versus the PMA control reference (human neutrophils; 100 μM, 3 hours): approximately 40%
- MPO activity % of control (human neutrophils; 100 μM, 3 hours, PMA control reference about 560%): about 320%
- effect on PMA-induced MPO release (human neutrophils; 50 and 100 μM, 30 min): no detected effect
- reduction in EPO activity relative to the PMA control reference (HL-60 clone 15 cells; 10 μM, 1 hour): about 15%
- EPO activity relative to control as 100% (HL-60 clone 15 cells; 10 μM, 1 hour, PMA control reference about 110%): about 95%
- reduction in EPO activity relative to the PMA control reference (HL-60 clone 15 cells; 10 μM, 2 hour): about 10%
- EPO activity relative to control as 100% (HL-60 clone 15 cells; 10 μM, 2 hour, PMA control reference about 145%): about 130%
- % Inhibition EPO (HL-60 clone 15 cells): 46.1%
- reduction in EPO activity relative to the PMA control reference (HL-60 clone 15 cells; 50 μM, 1 hour): about 30%
- EPO activity relative to control as 100% (HL-60 clone 15 cells; 50 μM, 1 hour, PMA control reference about 110%): about 78%
- reduction in EPO activity relative to the PMA control reference (HL-60 clone 15 cells; 50 μM, 2 hour): about 50%
- EPO activity relative to control as 100% (HL-60 clone 15 cells; 50 μM, 2 hour, PMA control reference about 145%): about 70%
- reduction in EPO activity relative to the PMA control reference (HL-60 clone 15 cells; 100 μM, 1 hour): about 40%
- EPO activity relative to control as 100% (HL-60 clone 15 cells; 100 μM, 1 hour, PMA control reference about 110%): about 65%
- reduction in EPO activity relative to the PMA control reference (HL-60 clone 15 cells; 100 μM, 2 hour): about 50%
- EPO activity relative to control as 100% (HL-60 clone 15 cells; 100 μM, 2 hour, PMA control reference about 145%): about 72%

Compound: CCCCCCCCCCCCCC(=O)O[C@@H]1[C@@H](C)[C@@]2(O)[C@@H](C=C(CO)C[C@]3(O)C(=O)C(C)=C[C@@H]23)[C@@H]2C(C)(C)[C@]12OC(C)=O [PMA, phorbol 12-myristate 13-acetate]
- increase of human neutrophil MPO release versus control level (human neutrophils; 30 min): approximately threefold
- increase of human neutrophil MPO release versus control level (human neutrophils; after 3 hrs): 5-6 fold

Compound: CCCCCCCCCCCCCC(=O)NCC(=O)N[C@H](C(=O)N[C@@H](C)C(=O)N1CCC[C@H]1C(=O)N[C@@H](C)C(=O)N[C@@H](C)C(=O)N[C@@H](CCC(=O)O)C(=O)NCC(=O)N[C@@H](C)C(=O)NCC(=O)N[C@@H](C)C(=O)N[C@@H](CCC(=O)O)C(=O)N[C@H](C(=O)N[C@@H](CCCCN)C(=O)N[C@@H](CCCNC(=N)N)C(=O)N[C@@H](C)C(=O)N[C@@H](CO)C(=O)N[C@@H](C)C(=O)N[C@@H](CCC(=O)O)C(=O)N[C@@H](C)C(=O)N[C@@H](CCCCN)C(=O)N[C@@H](CCC(N)=O)C(=O)N[C@@H](C)C(=O)N[C@@H](Cc1ccccc1)C(=O)O)C(C)C)[C@@H](C)O [RNS, reference compound] (Myristoyl-GTAPAAEGAGAEVKRASAEAKQAF-OH; C-terminus assumed)
- % Inhibition MPO (human neutrophils): 0%
- effect on PMA-induced MPO release (human neutrophils; [2]): did not affect
- % Inhibition EPO (HL-60 clone 15 cells): 0%
- effect on PMA-enhanced EPO release (HL-60 clone 15 cells; [2]): did not affect
- solubility [1]: > 15 mg/mL

Compound: Ac-GAQFSKTAAK [Ac-GAQFSKTAAK]
- % Inhibition MPO (human neutrophils): 25.3%
- % Inhibition EPO (HL-60 clone 15 cells): 35.7%
- solubility [1]: > 100 mg/mL

Compound: Ac-GAQFSKTAAKGEAAAERPGEAAVA
- % Inhibition EPO (HL-60 clone 15 cells): 33.7%
- solubility [1]: > 250 mg/mL
